Measured values: PMC5853558, “De novo identification of lipid II binding lipopeptides with antibacterial activity against vancomycin-resistant bacteria” (Chemical Science, 2017)
≈ marks a conversion by molar mass, not a printed value. *1 amine or outer side, *2 acyl side, *3 side chain or, on linkers, in order; H or OH if unused. Where a SMILES comes first, the peptide text is derived from it. Bridges are numbered along the chain shown (N, C = ends). [ ]: non-standard residue; d: D form. The star is where a group is joined. TBMB = c1c(C[*:1])cc(C[*:3])cc1C[*:2]; NHDecyl = CCCCCCCCCCN*

What was measured:
M. luteus (NCTC2665) = assay: microbe, parasite or virus in culture; format: cell-based, Micrococcus luteus
Protocol: (§1) Section 4 Biological and biochemical experiments
(§2) 4.1 Minimum inhibitory concentration assay
(§3) MIC values were determined by using the broth microdilution method. Peptides were dissolved first in DMSO and diluted with broth so that the final peptide concentration was 1024 µg/ml and the DMSO concentration was 4%. Peptide serial dilutions were made in TSB in a polypropylene 96-wells plate using 50 µl volumes. An overnight culture of the organism of interest was diluted to and OD600 of 0.01 and grown until they reach 0.5. The culture was then diluted to 1 x 10^6 CFU/ml and 50 µl of this suspension was added to each well. The highest concentrations were then 512 µg/ml peptide and 2% DMSO. The plates were incubated at the preferred growth temperature of the organism that was used and 250 rpm. […] When […]
(§4) determining the MICs of the lipidated peptides, the lipopeptides were first dissolved in DMSO and diluted with TSB so that the peptide concentration was 128 µg/ml and the DMSO concentration was 4%. After inoculation the highest peptide concentration evaluated was 64 µg/ml and the DMSO concentration was 2%. A DMSO control was tested for each strain to ensure the DMSO did not affect the growth of the particular strain. […]

B. subtilis (168) = assay: microbe, parasite or virus in culture; format: cell-based
Protocol: as §1, §2, §3, §4

S. pyogenes (5448) = assay: microbe, parasite or virus in culture; format: cell-based
Protocol: as §1, §2, §3, §4

S. epidermidis (1587) = assay: microbe, parasite or virus in culture; format: cell-based
Protocol: as §1, §2, §3, §4

E. faecium (VRE0321) = assay: microbe, parasite or virus in culture; format: cell-based, Enterococcus faecium
Protocol: as §1, §2, §3, §4

E. faecium (VRE2297) = assay: microbe, parasite or virus in culture; format: cell-based, Enterococcus faecium
Protocol: as §1, §2, §3, §4

E. faecium (VRE155) = assay: microbe, parasite or virus in culture; format: cell-based, Enterococcus faecium
Protocol: as §1, §2, §3, §4

E. faecium (VRE7391) = assay: microbe, parasite or virus in culture; format: cell-based, Enterococcus faecium
Protocol: as §1, §2, §3, §4

E. faecium (E980) = assay: microbe, parasite or virus in culture; format: cell-based, Enterococcus faecium
Protocol: as §1, §2, §3, §4

Sheep blood = assay: Hemolysis assay; format: cell-based
Protocol: Sheep blood in Alsever’s solution (2 mL) was diluted with PBS (13 mL) and centrifuged (2,000 RPM, 5 min). The supernatant was discarded and the cells were washed with another 13 mL of PBS and centrifuged. Washing was continued until the supernatant was clear. After the final wash the supernatant was discarded and the packed cells were kept on ice. Serial dilutions of each peptide were made in 50 µl PBS with the highest tested concentration 64 µg/mL in PBS, 2%
DMSO. The packed cells (150 µL) were suspended in PBS (10 mL) and 50 µL of this suspension was added to each well. A well plate column containing 0.1% triton x-100 in DI water was used as the 100% lysis control and a second column with PBS (with 2% DMSO) served as the 0% lysis control. After incubation at 37°C for 1h the plates were centrifuged (2,000 RPM, 5 min) and 25 µL of the supernatant was added to 100 µL DI water in a flat-bottom 96-wells plate (polystyrene). […]

[1] = Supplemental table S9, MIC values of Table 2 expressed in µM
[2] = Table 2, broth microdilution in TSB, 16 h, read visually, highest tested 64 µg/ml, 2% DMSO
[3] = Table 2, broth microdilution in TSB, 16 h, read visually, highest tested 64 µg/ml
[4] = Table 2, vancomycin-resistant isolate from hospitalized patients, broth microdilution in TSB, 16 h, highest tested 64 µg/ml
[5] = Supplemental table S9, vancomycin-resistant isolate, MIC values of Table 2 expressed in µM
[6] = Supplemental table S9, 1 hour incubation at 37 °C, lipopeptides at 32 µg/mL

CCCCCCCCCCNC(=O)CNC(=O)[C@H]1CSCc2cc3cc(c2)CSC[C@@H](NC(=O)[C@@H](CC(C)C)NC(=O)[C@@H](CC(C)C)NC(=O)[C@@H](CO)NC(=O)[C@@H](CCC(N)=O)NC(=O)[C@@H](CC(C)C)NC(=O)[C@@H](CC(C)C)NC(=O)[C@H](NC(=O)[C@@H](C)N)CSC3)C(=O)N2CCC[C@@H]2C(=O)N[C@H](Cc2ccc(O)cc2)C(=O)N[C@H](CO)C(=O)N[C@H]([C@H](C)O)C(=O)N[C@H](CCCNC(=N)N)C(=O)N[C@H](C)C(=O)N1 [P8-D-(H14R, R15A)-C10] (H-[dA][dC][dL][dL][dQ][dS][dL][dL][dC][dP][dY][dS][dT][dR][dA][dC]G-NHDecyl; linker 2-9-16 via TBMB; N-terminus assumed)
MIC M. luteus (NCTC2665) (M. luteus (NCTC2665); [1]): 3.9 µM (≈ 8.01 µg/mL)
MIC M. luteus (NCTC2665) (M. luteus (NCTC2665); [2]): 4 μg mL^–1
MIC B. subtilis (168) (B. subtilis (168); [1]): 15.6 µM (≈ 32 µg/mL)
MIC B. subtilis (168) (B. subtilis (168); [3]): 16 μg mL^–1
MIC S. pyogenes (5448) (S. pyogenes (5448); [1]): 15.6 µM (≈ 32 µg/mL)
MIC S. pyogenes (5448) (S. pyogenes (5448); [3]): 16 μg mL^–1
MIC S. epidermidis (1587) (S. epidermidis (1587); [1]): > 62. 4 µM
MIC S. epidermidis (1587) (S. epidermidis (1587); [3]): >64 μg mL^–1
MIC E. faecium (VRE0321) (E. faecium (VRE0321); [4]): 8–16 μg mL^–1
MIC E. faecium (VRE2297) (E. faecium (VRE2297); [5]): 15.6 µM (≈ 32 µg/mL)
MIC E. faecium (VRE2297) (E. faecium (VRE2297); [4]): 16 μg mL^–1
MIC E. faecium (VRE155) (E. faecium (VRE155); [4]): 8–16 μg mL^–1
MIC E. faecium (VRE7391) (E. faecium (VRE7391); [4]): 8–16 μg mL^–1
MIC E. faecium (E980) (E. faecium (E980); [1]): 31.2 µM (≈ 64 µg/mL)
MIC E. faecium (E980) (E. faecium (E980); [3]): 32 μg mL^–1
Hemolysis (Sheep blood; [6]): 2%

CCCCCCCCCCNC(=O)CNC(=O)[C@H]1CSCc2cc3cc(c2)CSC[C@@H](NC(=O)[C@@H](CC(C)C)NC(=O)[C@@H](CC(C)C)NC(=O)[C@@H](CO)NC(=O)[C@@H](CCC(N)=O)NC(=O)[C@@H](CC(C)C)NC(=O)[C@@H](CC(C)C)NC(=O)[C@H](NC(=O)[C@@H](C)N)CSC3)C(=O)N[C@H](CCCNC(=N)N)C(=O)N[C@H](Cc2ccc(O)cc2)C(=O)N[C@H](CO)C(=O)N[C@H]([C@H](C)O)C(=O)N[C@H](Cc2c[nH]cn2)C(=O)N[C@H](C)C(=O)N1 [P8-D-(P10R, R15A)-C10] (H-[dA][dC][dL][dL][dQ][dS][dL][dL][dC][dR][dY][dS][dT][dH][dA][dC]G-NHDecyl; linker 2-9-16 via TBMB; N-terminus assumed)
MIC M. luteus (NCTC2665) (M. luteus (NCTC2665); [1]): 3.8 µM (≈ 7.95 µg/mL)
MIC M. luteus (NCTC2665) (M. luteus (NCTC2665); [2]): 4 μg mL^–1
MIC B. subtilis (168) (B. subtilis (168); [1]): 7.7 µM (≈ 16.1 µg/mL)
MIC B. subtilis (168) (B. subtilis (168); [3]): 8 μg mL^–1
MIC S. pyogenes (5448) (S. pyogenes (5448); [1]): 15.3 µM (≈ 32 µg/mL)
MIC S. pyogenes (5448) (S. pyogenes (5448); [3]): 16 μg mL^–1
MIC S. epidermidis (1587) (S. epidermidis (1587); [1]): > 61. 2 µM
MIC S. epidermidis (1587) (S. epidermidis (1587); [3]): >64 μg mL^–1
MIC E. faecium (VRE0321) (E. faecium (VRE0321); [5]): 15.3 µM (≈ 32 µg/mL)
MIC E. faecium (VRE0321) (E. faecium (VRE0321); [4]): 16 μg mL^–1
MIC E. faecium (VRE2297) (E. faecium (VRE2297); [5]): 30.6 µM (≈ 64 µg/mL)
MIC E. faecium (VRE2297) (E. faecium (VRE2297); [4]): 32 μg mL^–1
MIC E. faecium (VRE155) (E. faecium (VRE155); [5]): 7.7 µM (≈ 16.1 µg/mL)
MIC E. faecium (VRE155) (E. faecium (VRE155); [4]): 8 μg mL^–1
MIC E. faecium (VRE7391) (E. faecium (VRE7391); [5]): 15.3 µM (≈ 32 µg/mL)
MIC E. faecium (VRE7391) (E. faecium (VRE7391); [4]): 16 μg mL^–1
MIC E. faecium (E980) (E. faecium (E980); [1]): 30.6 µM (≈ 64 µg/mL)
MIC E. faecium (E980) (E. faecium (E980); [3]): 32 μg mL^–1
Hemolysis (Sheep blood; [6]): 0%

CCCCCCCCCCNC(=O)CNC(=O)[C@H]1CSCc2cc3cc(c2)CSC[C@@H](NC(=O)[C@@H](CC(C)C)NC(=O)[C@@H](CC(C)C)NC(=O)[C@@H](CO)NC(=O)[C@@H](CCC(N)=O)NC(=O)[C@@H](CC(C)C)NC(=O)[C@@H](CC(C)C)NC(=O)[C@H](NC(=O)[C@@H](C)N)CSC3)C(=O)N2CCC[C@@H]2C(=O)N[C@H](Cc2ccc(O)cc2)C(=O)N[C@H](CO)C(=O)N[C@H]([C@H](C)O)C(=O)N[C@H](Cc2c[nH]cn2)C(=O)N[C@H](C)C(=O)N1 [P8-D-(R15A)-C10] (H-[dA][dC][dL][dL][dQ][dS][dL][dL][dC][dP][dY][dS][dT][dH][dA][dC]G-NHDecyl; linker 2-9-16 via TBMB; N-terminus assumed)
MIC M. luteus (NCTC2665) (M. luteus (NCTC2665); [1]): 3.9 µM (≈ 7.93 µg/mL)
MIC M. luteus (NCTC2665) (M. luteus (NCTC2665); [2]): 4 μg mL^–1
MIC M. luteus (NCTC2665) (M. luteus (NCTC2665); Table 2, broth microdilution in TSB, 16 h, read visually, highest tested 64 µg/ml, 2% DMSO, listed as P8-R15A-C10): retained activity
MIC B. subtilis (168) (B. subtilis (168); [1]): > 63.1 µM
MIC B. subtilis (168) (B. subtilis (168); [3]): >64 μg mL^–1
MIC S. pyogenes (5448) (S. pyogenes (5448); [3]): 16 μg mL^–1
MIC S. epidermidis (1587) (S. epidermidis (1587); [1]): > 63. 1 µM
MIC S. epidermidis (1587) (S. epidermidis (1587); [3]): >64 μg mL^–1
MIC E. faecium (VRE0321) (E. faecium (VRE0321); [4]): 8–16 μg mL^–1
MIC E. faecium (VRE2297) (E. faecium (VRE2297); [5]): > 63. 1 µM
MIC E. faecium (VRE2297) (E. faecium (VRE2297); [4]): >64 μg mL^–1
MIC E. faecium (VRE155) (E. faecium (VRE155); [4]): 16 μg mL^–1
MIC E. faecium (VRE7391) (E. faecium (VRE7391); [5]): > 63. 1 µM
MIC E. faecium (VRE7391) (E. faecium (VRE7391); [4]): >64 μg mL^–1
MIC E. faecium (E980) (E. faecium (E980); [1]): 63.1 µM (≈ 128 µg/mL)
MIC E. faecium (E980) (E. faecium (E980); [3]): 64 μg mL^–1
Hemolysis (Sheep blood; [6]): 0%
Hemolysis (Sheep blood; Table 2, sheep blood cells in PBS, lipopeptides at 32 μg mL^–1, 1 hour at 37 °C, absorption at 414 nm, 0.1% triton x-100 = 100% lysis, listed as P8-R15A-C10): completely non-hemolytic
